Where two headings read alike, the source gives them in different places.
Assays:
E. coli AG100 [1] = test: Real-time ethidium bromide accumulation (efflux pump inhibition, AcrAB-TolC); assay type: cell-based, Escherichia coli; conditions: compounds at ¼ MIC, EB 1 μg/mL, minute 30
Procedure: (§1) Since multidrug resistance EPs are very important factors contributing to multidrug resistance (MDR) in both Gram-positive and Gram-negative bacteria, the inhibition of these pumps could reverse the resistant phenotype and restore the activity of antibiotics. The effect of compounds on ethidium bromide (EB) accumulation was determined by the automated EB method. This assay was used to determine how much of the fluorescent dye and pump substrate EB was accumulated by the bacterial cells in the presence of the tested compounds. The real-time accumulation of EB was monitored for 30 min in both S. aureus and E. coli strains.
(§2) The accumulation of the efflux pump substrate EB was monitored by the automated EB method using a LightCycler real-time thermocycler (LightCycler 1.5, Roche, Indianapolis, IN, USA). An aliquot of an overnight culture of the S. aureus strains in TSB medium was inoculated into fresh TSB medium, and it was incubated until it reached an optical density (OD) of 0.6 at 600 nm. In the case of E. coli strains, the medium applied in the assay was LB broth; the preparation of the inoculum was similar to the one of S. aureus. The cells were washed with phosphate buffered saline (PBS; pH 7.4) and centrifuged at 13,000 × g for 3 min, the pellets were re-suspended in PBS (pH 7.4), and the OD was calibrated to 0.6 at 600 nm. The compounds were measured at ¼ MIC concentration (in double-concentrated form) to the EB solution in PBS. The final concentration of EB was determined according to the MIC and the fluorescent signal produced by this amount of EB. In the case of all strains, the concentration of EB was 1 μg/mL. Then, 10 μL of the EB solution plus the compound were pipetted into standard glass capillary tubes of 20 µL maximum volume (Roche, Indianapolis, USA), and 10 μL of bacterial culture (OD of 0.6 at 600 nm) were transferred to the capillaries. The capillaries containing the samples were placed into the carousel, and the fluorescence was monitored at the FL-2 channel in every minute on a real-time basis.
(§3) Based on the data obtained, the relative fluorescence index (RFI) of the last time point (minute 30) was determined as follows:RFI = (RFtreated − RFuntreated)/RFuntreated(1) where RFtreated is the relative fluorescence (RF) at the last time point of the EB retention curve in the presence of an inhibitor, and RFuntreated is the relative fluorescence at the last time point of the EB retention curve of the untreated control having the solvent control (DMSO).

S. aureus 272123 (MRSA) [2] = test: Minimum inhibitory concentration (broth microdilution, CLSI); assay type: cell-based, Staphylococcus aureus; conditions: 18 h, visual inspection
Procedure: (§4) The compounds were further investigated against two Gram-positive strains, S. aureus ATCC 25923 (MSSA), used as the methicillin susceptible reference strain, and the methicillin- and ofloxacin-resistant S. aureus 272123 clinical isolate (MRSA), which was given by Prof. Dr. Leonard Amaral (Institute of Hygiene and Tropical Medicine, Lisbon, Portugal).
(§5) The minimum inhibitory concentrations (MICs) of compounds were determined in 96-well plates based on the Clinical and Laboratory Standard Institute guidelines (CLSI guidelines). The compounds were diluted in 100 μL of MHB. Then, 10^−4 dilution of an overnight bacterial culture in 100 μL of medium were added to each well, with the exception of the medium control wells.

[3] = tested on: MRC-5 human embryonal lung fibroblast cell line; test: Cytotoxicity assay (MTT); assay type: cell-based
Procedure: The MRC-5 human embryonic lung fibroblast cell line (ATCC CCL-171; provider: LGC Promochem, Teddington, UK) was used in the experiments. The cells were cultivated in Eagle’s Minimal Essential Medium (EMEM; Sigma–Aldrich, St. Louis, MO, USA), supplemented with 1% non-essential amino acid mixture, 10% heat-inactivated fetal bovine serum, 2 mM L-glutamine, 1 mM Na-pyruvate, nystatin, and a penicillin–streptomycin mixture in concentrations of 100 U/L and 10 mg/L, respectively. The supplementary components were obtained from Sigma–Aldrich, St. Louis, MO, USA. The cell culture was kept in a humidified atmosphere (5% CO2, 95% air) at 37 °C.
The activity of increasing concentrations of the compounds on cell growth was determined in 96-well flat-bottomed microtiter plates by two-fold serial dilutions of the benzoxazole derivatives. The adherent human embryonic lung fibroblast cells (10^4/well) was seeded in EMEM medium in 96-well microtiter plates for 4 h prior to the assay. The serial dilutions of the compounds were made in a separate plate, and then pipetted to the plates containing the MRC-5 cell line. Culture plates were incubated at 37 °C for 24 h; at the end of the incubation period, 20 μL of MTT (3-(4,5-dimethylthiazol-2-yl)-2,5-diphenyltetrazolium bromide) solution (from a 5 mg/mL stock solution) was measured to each well. After the incubation at 37 °C for 4 h, 100 μL of sodium dodecyl sulfate (SDS) solution (10% SDS in 0.01 M HCl) was added to each well to dissolve the formazan crystals and the samples were further incubated at 37 °C overnight. Cell growth was calculated by measuring the OD at 540 nm (ref. 630 nm) with a Multiscan EX ELISA reader. The cytotoxicity was expressed as IC50 values, defined as the inhibitory dose that reduces the growth of the cells exposed to the tested compounds by 50%.

S. aureus MRSA 272123 = test: Resistance modulation (MIC reduction) assay with CIP and TET; assay type: cell-based, Staphylococcus aureus; conditions: for Reduction of the MIC value of CIP: compound at a quarter of the MIC; for CIP MIC in combination with compounds: compound at ¼ MIC, value is the MIC of ciprofloxacin
Procedure: (§6) The resistance modulation effects of compounds with ciprofloxacin (CIP) and tetracycline (TET) antibiotics were evaluated by the MIC reduction method on the Gram-negative E. coli AG100, AG100 A, and the Gram-positive S. aureus ATCC and MRSA strains.
(§7) The chemosensitizing activity of benzoxazole-type ligands and their metal complexes was determined based on the MIC values of the antibiotics in the presence of sub-inhibitory concentrations of the compounds (¼ MIC) in both Gram-negative and Gram-positive strains. The MICs were determined in strains by the two-fold broth microdilution method in 96-well plates, using serial dilutions of TET and CIP. The first four rows contained two-fold dilutions of antibiotics, and combinations of the TET and CIP and tested compounds were transferred into the last four rows. The 10^−4 dilution of an overnight bacterial culture in 50 μL of MHB was then measured to each well, except for the medium control wells. The plates were kept at 37 °C for 18 h. MIC values of antibiotics and their combination with tested compounds were detected by visual inspection.

E. coli AG100 A [4] = test: Minimum inhibitory concentration (broth microdilution, CLSI); assay type: cell-based, Escherichia coli; conditions: 18 h
Procedure: Wild-type E. coli K-12 AG100 strain (argE3 thi-1 rpsL xyl mtl Δ(gal-uvrB) supE44) expressing the AcrAB TolC EP at its basal level and its AcrAB-TolC deleted mutant E. coli K-12 AG100 A strain. The strains were donated by Prof. Dr. Hiroshi Nikaido (Department of Molecular and Cell Biology and Chemistry, University of California, Berkeley, CA, USA).
as §5

S. aureus 272123 (MRSA) [5] = test: Real-time ethidium bromide accumulation (efflux pump inhibition); assay type: cell-based, Staphylococcus aureus; conditions: compounds at ¼ MIC (3 at 12.5 µM), VER at 25 µM, EB 1 μg/mL, minute 30
Procedure: as §1, §2, §3

S. aureus ATCC 25923 = test: as above; assay type: cell-based, Staphylococcus aureus; conditions: compounds at ¼ MIC, EB 1 μg/mL, minute 30
Procedure: as §1, §2, §3

[6] = tested on: Staphylococcus aureus ATCC 25923; test: Minimum inhibitory concentration (broth microdilution, CLSI); assay type: cell-based; conditions: S. aureus ATCC 25923, 18 h, visual inspection
Procedure: as §4, §5

E. coli AG100 [7] = test: Resistance modulation (MIC reduction) assay with CIP and TET; assay type: cell-based, Escherichia coli; conditions: for CIP MIC in combination with compounds: value is the MIC of ciprofloxacin
Procedure: as §6, §7

E. coli AG100 [8] = test: Minimum inhibitory concentration (broth microdilution, CLSI); assay type: cell-based, Escherichia coli; conditions: E. coli AG100, 18 h, visual inspection, read-out: MIC
Procedure: The strains were donated by Prof. Dr. Hiroshi Nikaido (Department of Molecular and Cell Biology and Chemistry, University of California, Berkeley, CA, USA).
as §5

[9] = tested on: Chromobacterium violaceum 026; test: as above; assay type: cell-based; conditions: C. violaceum 026
Procedure: (§8) The following bacterial strains were applied in the QS tests: C. violaceum 026 as sensor strain and E. cloacae 31298 isolated from clinical wound (used as N-acyl-homoserine lactone (AHL) producer); this strain induced pigment production by C. violaceum and is a model strain to study QS interactions.
as §5

[10] = tested on: Enterobacter cloacae 31298; test: as above; assay type: cell-based; conditions: E. cloacae 31298
Procedure: as §8, §5

E. coli AG100 A [11] = test: Real-time ethidium bromide accumulation (efflux pump inhibition); assay type: cell-based, Escherichia coli; conditions: compounds at ¼ MIC, EB 1 μg/mL, minute 30
Procedure: as §1, §2, §3

[Cu+2].[O-]C(=Cc1nc2ccccc2o1)C(F)(F)F.[O-]C(=Cc1nc2ccccc2o1)C(F)(F)F [Compound 7]
Relative fluorescence index (RFI) (E. coli AG100 [1]): −0.06 | MIC (S. aureus 272123 (MRSA) [2]): 3.125 µM | Cytotoxic effect (class in words) ([3]; 24 h): weak (IC50: 61–100) | IC50 ([3]; 24 h): 76.1 µM | Reduction of the MIC value of CIP (S. aureus MRSA 272123): 2 fold | CIP MIC in combination with compounds (S. aureus MRSA 272123): 6.25 µM | MIC (E. coli AG100 A [4]; E. coli AG100 A (AcrAB-TolC deleted), visual inspection): 12.5 µM | Relative fluorescence index (RFI) (S. aureus 272123 (MRSA) [5]): −0.01 | Relative fluorescence index (RFI) (S. aureus ATCC 25923): 0.12 | MIC [6]: 12.5 µM | CIP MIC in combination with compounds (E. coli AG100 [7]; compound at ¼ MIC): 0.016 µM | MIC (E. coli AG100 [8]): >100 µM | MIC [9]: >100 µM | MIC [10]: >100 µM | Relative fluorescence index (RFI) (E. coli AG100 A [11]): 0.11

FC(F)(F)C1=Cc2oc3ccccc3[n+]2[Mg-2]2([O]1)[O]C(C(F)(F)F)=Cc1oc3ccccc3[n+]12 [Compound 9]
MIC (S. aureus 272123 (MRSA) [2]; Staphylococcus aureus): 6.25 µM | Cytotoxic effect (class in words) ([3]; 24 h): no (IC50 > 100 µM) | IC50 ([3]; Homo sapiens, MRC5, 24 h): > 100 µM | Reduction of the MIC value of CIP (S. aureus MRSA 272123): 2 fold | CIP MIC in combination with compounds (S. aureus MRSA 272123): 6.25 µM | MIC (E. coli AG100 A [4]; Escherichia coli, AG100A): 25 µM | MIC ([6]; Staphylococcus aureus, ATCC25923): 25 µM | Reduction of the MIC of CIP (E. coli AG100 [7]; compound at ¼ MIC): 2 fold | CIP MIC in combination with compounds (E. coli AG100 [7]; compound at ¼ MIC): 0.008 µM | MIC (E. coli AG100 [8]; Escherichia coli): 50 µM | MIC ([9]; Chromobacterium violaceum): > 100 µM | MIC ([10]; Enterobacter cloacae): > 100 µM

CN(C)CCCN1c2ccccc2Sc2ccc(Cl)cc21 [CPZ, Chlorpromazine, reference compound]
Relative fluorescence index (RFI) (E. coli AG100 [1]): 0.38 | Relative fluorescence index (RFI) (S. aureus ATCC 25923): 0.17 | Relative fluorescence index (RFI) (E. coli AG100 A [11]): 0.48

CN(C)[C@@H]1C(O)=C(C(N)=O)C(=O)[C@@]2(O)C(O)=C3C(=O)c4c(O)cccc4[C@@](C)(O)[C@H]3C[C@@H]12 [TET, tetracycline, reference compound]
MIC of antibiotic in the absence of the compounds (S. aureus MRSA 272123; antibiotic alone): 6.25 µM | MIC of antibiotic in the absence of the compounds (E. coli AG100 [7]; antibiotic alone): 50 µM
